From patent US8318184B2, “MGLU2 agonists” (Eli Lilly and Company, priority 2009, dated 2012)

Experiments:
[1] = target: T1, human mGlu2 receptor (Homo sapiens, UniProt Q14416); test: Human mGlu2 Agonist FLIPR Assay; type: cell-based; conditions: hmGlu2 FLIPR assay, AV-12 cells, relative EC50
T1 construct: expressed in transfected cells; co-transfected with rat EAAT1 and Galpha15
Source text: AV-12 cell lines, derived from Syrian Hamster fibroblasts and stably expressing the human mGlu2 receptor and co-transfected with the rat glutamate transporter EAAT 1 (Excitatory Amino Acid Transporter 1) and the Gα15 subunit, are used for these studies. The expression of Gα15 allows Gi-coupled receptors to signal through the phospholipase C pathway, resulting in the ability to measure receptor activation by a fluorometric calcium response assay. […]
Intracellular calcium levels are monitored before and after the addition of compounds using a Fluorometric Imaging Plate Reader (FLIPR, Molecular Devices). […] Results are analyzed using Prism v4.03 (GraphPad Software). […] After taking an initial 5-sec fluorescent read on the FLIPR instrument, a compound of the present invention is added to the cell plate (50 μL per well). […] The compound effect is measured as maximal minus minimal peak heights in relative fluorescent units (RFUs) corrected for basal fluorescence measured in the absence of glutamate. […] Agonist effects are quantified as percent stimulation induced by compound alone relative to the maximal glutamate response. All data are calculated as relative EC50 values using a four-parameter logistic curve fitting program (ActivityBase v5.3.1.22).

[2] = 1 h, 10 µM, pH 7.4

T1 sequence (Q14416 19-872): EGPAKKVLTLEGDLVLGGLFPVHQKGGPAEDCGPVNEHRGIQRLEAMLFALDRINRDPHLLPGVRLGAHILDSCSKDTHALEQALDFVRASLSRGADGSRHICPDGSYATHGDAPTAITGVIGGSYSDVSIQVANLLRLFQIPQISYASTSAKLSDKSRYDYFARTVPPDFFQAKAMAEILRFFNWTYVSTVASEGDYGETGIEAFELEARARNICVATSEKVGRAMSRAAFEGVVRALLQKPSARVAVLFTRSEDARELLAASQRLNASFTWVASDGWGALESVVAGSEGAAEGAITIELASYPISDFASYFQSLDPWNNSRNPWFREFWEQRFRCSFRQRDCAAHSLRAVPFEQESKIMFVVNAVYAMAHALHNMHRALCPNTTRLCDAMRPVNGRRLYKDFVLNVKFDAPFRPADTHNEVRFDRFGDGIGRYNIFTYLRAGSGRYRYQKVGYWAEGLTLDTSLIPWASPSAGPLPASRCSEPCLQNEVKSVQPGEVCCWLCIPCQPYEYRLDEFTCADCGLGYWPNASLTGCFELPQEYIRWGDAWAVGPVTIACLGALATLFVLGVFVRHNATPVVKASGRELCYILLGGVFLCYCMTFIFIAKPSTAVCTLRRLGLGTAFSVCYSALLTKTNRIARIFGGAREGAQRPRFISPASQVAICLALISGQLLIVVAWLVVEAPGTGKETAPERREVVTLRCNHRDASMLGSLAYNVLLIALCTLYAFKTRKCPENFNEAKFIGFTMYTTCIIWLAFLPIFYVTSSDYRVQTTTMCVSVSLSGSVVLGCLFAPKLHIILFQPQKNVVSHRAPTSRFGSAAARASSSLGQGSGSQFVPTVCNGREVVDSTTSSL

| EC50 [1] [nM] | human intestinal hydrolysis relative to Internal Prodrug Compound A [2] [%] | Compound |
| --- | --- | --- |
| 23 | – | N[C@@]1(C(=O)O)C[C@@H](Sc2nnc[nH]2)[C@H]2[C@H](C(=O)O)[C@H]21 [Example 1, (1R,2S,4R,5R,6R)-2-Amino-4-(4H-1,2,4-triazol-3-ylsulfanyl)bicyclo[3.1.0]hexane-2,6-dicarboxylic acid] |
| – | 61 | C[C@H](N)C(=O)N[C@@]1(C(=O)O)C[C@@H](Sc2nnc[nH]2)[C@H]2[C@H](C(=O)O)[C@H]21.Cl [Example 2, (1R,2S,4R,5R,6R)-2-[[(2S)-2-Aminopropanoyl]amino]-4-(1H-1,2,4-triazol-3-ylsulfanyl)bicyclo[3.1.0]hexane-2,6-dicarboxylic acid hydrochloride] |
